Measurements taken from patent US20040037775A1, “Leukocyte internalized peptide-drug conjugates” (priority 2000, published 2004).
Entries after “also recorded” stand apart in the source; their conditions may differ. Starred links: 1 amine or outer side, 2 acyl side, 3 side chain; linkers in the order of their positions; H or OH if unused. Positions of bridges follow the written chain, without caps; N, C: chain ends. Non-standard residues stand in square brackets, D forms with d. Residues, ends and D or L forms follow the SMILES beside them. *: point of attachment. DAMPA = CN(Cc1cnc2nc(N)nc(N)c2n1)c1ccc(C(=O)*)cc1; γGlu = O=C(O)[C@H](CCC(=O)[*:2])N[*:1]; Pen = CC(C)(S)[C@H](N)C(=O)O

Legend:
[1] = tested on: Molt-3 T-cells; experiment: propidium iodide assay of growth and cytotoxicity in Molt-3 T-cells; format: cell-based, human; settings: tested 0.1-500 μM
[2] = tested on: Molt-3 T-cells/Calu-3 lung epithelial monolayers; experiment: heterotypic adhesion of Molt-3 T-cells to Calu-3 lung epithelial monolayers; format: cell-based, human; settings: for effect on adherence of Molt-3 T-cells to Calu-3 monolayers: IFN-γ-induced Calu-3, PMA-activated Molt-3
Procedure: Molt-3, Caco-2 and Calu-3 cell lines were obtained from the American Type Culture Collection (Rockville, Md.). Molt-3 and Caco-2 cells were maintained and grown using known methods. Briefly, the Caco-2 cell-line was grown as monolayers in Dulbecco's modified Eagle's medium (DMEM) with 25 mM glucose containing 10% FBS, 1% nonessential amino acids, 1 mM Na-pyruvate, 1% L-glutamine and […] of penicillin/streptomycin. Cells were grown in 75-cm^2 tissue culture flasks (Falcon) for maintenance purposes and in a 48-well cell culture cluster (Costar) for heterotypic-adhesion experiments. Before confluency was reached, Caco-2 cells were induced with 100 U/mL IFN-γ for 24 h to up-regulate the ICAM-1 expression. Calu-3, a lung epithelial cell line, was maintained in a 1:1 mixture of Ham's F12:DMEM containing 10% FBS and 100 μg/mL penicillin/streptomycin. Upon reaching 90% confluency (approximately 4-5 days), cells were subcultured at a 1:2 split ratio using 0.25% trypsin/0.1% EDTA. Calu-3 cells were induced with 500 U/mL IFN-γ for 48 h to up-regulate the ICAM-1 expression. All cell lines were grown in a 95% humidified/5% CO2 atmosphere at 37° C.
Heterotypic Adhesion Experiments with LFA-1 derived peptides—Two heterotypic cell adhesion systems were used in this work. The adhesion between Molt-3 T-cells/Calu-3 lung epithelial monolayers was used to assess the inhibitory activities of cLAB.L and cLAB.2L; Molt-3 T-cells/Caco-2 colon epithelial monolayers system was for cLAB.L and its derivatives. Briefly, Calu-3 or Caco-2 cell monolayers were pretreated with peptide solution prior to the adherence of fluorescence-labeled Molt-3 cells. […] Soluble lysates were transferred to 96-well (clear-bottom, black-sided) plates (Costar) for reading in a microplate fluorescence analyzer (Bio-Tek FL600) to give relative fluorescence (FL), i.e., the reading of fluorescence intensity of adherent corrected with the reading of cell monolayers only. Data were presented as the percentage of T-cell adherence calculated as follows: […]

[3] = tested on: L1210 mouse leukemia cells; experiment: cells; format: cell-based; settings: 48 h
Procedure: (§1) The cytotoxicity of MTX-peptide conjugates was evaluated in different cell lines, lincluding Molt-3 and L1210 T-cells, and KB epithelial cells. […] After 72 h of growth, the relative numbers of viable cells were determined according to the manufacture's protocols for measuring cytotoxicity using a Dojindo Cytotoxicity Assay Cell counting Kit-8 (CCK-8). To measure the cell viability, 10 μL of CCK-8 was added to each well and the plate was incubated for 4 h. After incubation, the absorbance at 450 nm was measured using a UV plate reader. Cell growth in the presence of different drug concentrations was calculated relative to the value obtained in the absence of the drug. […] Serial dilutions of compounds were prepared in un-supplemented medium, and 110 μL of drug solution was aliquoted in duplicate into 900 μL cell suspensions. Control flasks were treated with 110 μL of un-supplemented medium. Cells were incubated under standard conditions for 48 h, sufficient to allow control cells to divide approximately four times. Growth inhibition was determined by counting the cells on a Z2 model Coulter Counter (Coulter Electronics Ltd, Luton, Beds, UK). The IC50 values were calculated using Graphpad Prism software (Graphpad Software, San Diego, Calif.). KB MTT Assay: KB cells were seeded in Falcons® 96 well plates (Becton-Dickinson Labware Europe, France) at a density of 1,500 cells/well in a volume of 0.18 mL culture medium and incubated under standard culture conditions for 24 h after seeding to allow entry into the exponential phase of cell growth. […] In each assay condition, control cells were treated with 20 μL of un-supplemented medium instead of drug. Cells were incubated for 96 h to allow control cells to divide approximately four times before cell viability was determined by MTT assay.

[4] = tested on: Molt-3 T-cells; experiment: cells; format: cell-based, human; settings: 72 h
Procedure: as §1

[5] = tested on: LFA-1 receptor on Molt-3 T-cells; experiment: protection against MTX-cIBR toxicity in Molt-3 T-cells (LFA-1 mediated internalization, MTT); format: cell-based, human; settings: similar experiment
Procedure: As a control, some cells were left untreated. […] As a reference for minimal metabolic activity, 10 mM of the succinate dehydrogenase inhibitor iodoacetamide (IAA) was added to untreated wells. […] The tubes were spun to pellet the cells and the supernatant was carefully removed. The formazan crystals were dissolved in 200 μL of 0.04 N HCl in isopropanol; the tubes were sonicated for 5 min to completely dissolve crystals and then re-centrifuged to pelletize the cell debris. 100 μL aliquots of the supernatant solutions were removed and transferred to a 96-well microtiter plate. The optical density of the solution was measured at 570 nm using a UV plate reader.

[6] = tested on: KB epithelial cells; experiment: KB MTT assay (96 h); format: cell-based, human
Procedure: Human KB epithelial l cells: The human KB epithelial cell line was a gift from Dr Gerrit Jansen (University Free Hospital, Amsterdam, Netherlands) and was developed to overexpress the membrane folate binding protein (mFBP). Cells were cultured in RPMI 1640 medium without folic acid and supplemented with 10% heat inactivated dialyzed FCS (50 mL volume), 0.2 mL of 50 μg/mL gentamicin, 1 mL of 50 μg/mL amphotericin B, and 5 mL of 200 mM L-glutamine. The folate source, 20 nM (R,S)-LV, was added to supply cells with adequate growth conditions.
The cytotoxicity of MTX-peptide conjugates was evaluated in different cell lines, lincluding Molt-3 and L1210 T-cells, and KB epithelial cells. […] After 72 h of growth, the relative numbers of viable cells were determined according to the manufacture's protocols for measuring cytotoxicity using a Dojindo Cytotoxicity Assay Cell counting Kit-8 (CCK-8). To measure the cell viability, 10 μL of CCK-8 was added to each well and the plate was incubated for 4 h. After incubation, the absorbance at 450 nm was measured using a UV plate reader. Cell growth in the presence of different drug concentrations was calculated relative to the value obtained in the absence of the drug. […] Growth inhibition was determined by counting the cells on a Z2 model Coulter Counter (Coulter Electronics Ltd, Luton, Beds, UK). The IC50 values were calculated using Graphpad Prism software (Graphpad Software, San Diego, Calif.). […] Cells were incubated for 96 h to allow control cells to divide approximately four times before cell viability was determined by MTT assay.
The number of viable cells after a 96-h incubation was determined by assessing their ability to reduce MTT ([…]). […] The absorbance of the solution in each well was measured at 540 nm on a MCC/340 model Titertak Multiscan® plate reader (Labsystems/Flow Laboratories, Oxfordshire, UK). The results were analyzed using Ascent Research software v.2.1 (Labsystems, UK).

[7] = tested on: dihydrofolate reductase enzyme (DHFR); experiment: DHFR inhibition assay (spectrophotometric NADPH loss, Dixon plots); format: biochemical
Procedure: Into a 2.0 mL cuvette, a 1.0 mL solution of 0.11 mM β-NADPH and 33 μL of 2.3 mM DHFA were aliquoted and allowed to equilibrate. […] To begin the assay, 33 μL of DHFR (0.12-0.25 unit/mL with 0.1% BSA) was added to the reaction mixture. The absorbance of the reaction mixture was then recorded continuously for 5 min at 340 nm and the enzyme activity was determined by the rate of NADPH loss. Enzyme activity was determined for three different fixed concentrations of substrate (0.19, 1.9 and 10.0 mM DHFA).

Compound: cyclol,12-PenDLSTSLDDLRC [cLBE.L]
- concentration at which total growth inhibition emerged in Molt-3 cells [1]: 100 µM

Compound: cyclol,12-PenITDGEATDSGC [cLAB.L]
- concentration at which total growth inhibition emerged in Molt-3 cells [1]: 100 µM
- effect on adherence of Molt-3 T-cells to Calu-3 monolayers [2]: significantly reduces
- inhibition of heterotypic cell adhesion ([2]; IFN-γ-induced Calu-3 monolayers, BCECF labeled Molt-3 cells): about 40%

Compound: CC[C@H](C)[C@H](NC(=O)[C@@H](NC(=O)CC[C@H](NC(=O)c1ccc(N(C)Cc2cnc3nc(N)nc(N)c3n2)cc1)C(=O)O)C(C)C)C(=O)N[C@@H](CC(C)C)C(=O)N1CCC[C@H]1C(=O)N[C@@H](CCCNC(=N)N)C(=O)NCC(N)=O [MTX-VILPRG] ({DAMPA-γGlu}-VILPRG-NH2)
- IC50 [3]: 0.7 ± 0.3 µM
- IC50 [4]: 9.12 ± 0.2 µM

Compound: CC(C)C[C@@H]1NC(=O)[C@H](C(C)C)NC(=O)[C@H](CO)NC(=O)CNC(=O)CNC(=O)[C@H](CCCNC(=N)N)NC(=O)[C@@H]2CCCN2C(=O)[C@@H](N)C(C)(C)SSC[C@@H](C(=O)O)NC(=O)CNC(=O)[C@H]([C@@H](C)O)NC(=O)[C@H](C(C)C)NC1=O [cIBR peptide] (H-[Pen]PRGGSVLVTGC-OH; disulfide 1-12)
- effect on cytotoxicity of MTX-cIBR [5]: reduced the cytotoxicity of MTX-cIBR in a concentration dependent manner

Compound: CC[C@H](C)[C@@H]1NC(=O)[C@H](C(C)C)NC(=O)[C@H](CCCCN)NC(=O)[C@H](CO)NC(=O)[C@@H]2CCCN2C(=O)[C@H](CO)NC(=O)[C@H](C(C)C)NC(=O)[C@H](CO)NC(=O)[C@H]([C@@H](C)O)NC(=O)[C@H](CCC(N)=O)NC(=O)[C@@H](NC(=O)CC[C@H](NC(=O)c2ccc(N(C)Cc3cnc4nc(N)nc(N)c4n3)cc2)C(=O)O)C(C)(C)SSC[C@@H](C(=O)O)NC1=O [MTX-cIBL] ({DAMPA-γGlu}-[Pen]QTSVSPSKVIC-OH; disulfide 1-12)
- IC50 [3]: 9.14 ± 1 µM
- IC50 [6]: > 10 µM
- IC50 [4]: 2.68 ± 0.2 µM
- Km relative to that of MTX [7]: approximately 4 fold
- Ymax ([7]; from Dixon plots): 4.26 ± 0.07 × 10^−4

Compound: Xaa-Gly Val Asp Val Asp Glp Asp Gly Glu Thr-Cys [cLAB.2L, cyclic domain V peptide of LFA-1]
- effect on adherence of Molt-3 T-cells to Calu-3 monolayers [2]: did not interfere; also recorded: no significant effect

Compound: CC(C)[C@H](NC(=O)[C@H](CO)NC(=O)CNC(=O)CNC(=O)[C@H](CCCNC(=N)N)NC(=O)[C@@H]1CCCN1C(=O)CC[C@H](NC(=O)c1ccc(N(C)Cc2cnc3nc(N)nc(N)c3n2)cc1)C(=O)O)C(N)=O [MTX-PRGGSV] ({DAMPA-γGlu}-PRGGSV-NH2)
- IC50 [3]: 1.6 ± 0.4 µM
- IC50 [4]: 5.13 ± 0.6 µM
